Reference: patent publication US8486123B2, “Micro-organism-reducing device” (bredent medical GmbH & Co., KG, priority 2003, dated 2013)

Key:
[1] = system: Gram positive and Gram negative bacteria; assay: dark toxicity of the stains for bacteria; type: cell-based; settings: TB compared with MB, without irradiation
Description: The observed dark toxicity was higher for toluidine blue (TB) than for methylene blue (MB). This is consistent with the distribution coefficient P that was determined to be 0.33 for TB and 0.11 for MB.
While dark toxicity for Gram positive bacteria was nearly unrelated to type, the dark toxicity for Gram negative bacteria is quite clearly a function of type and specifically corresponds to the trans-membrane permeability coefficient of the exterior membrane of Gram negative bacteria.
Dark toxicity was a function of both the concentration and the incubation period prior to irradiation.

[2] = distribution coefficient P; type: physicochemical
[3] = system: Gram positive bacteria; assay: in vitro reduction of Gram positive bacteria by methylene blue solutions; type: cell-based
From the text: Methylene blue solutions reduce almost all Gram positive bacteria in a concentration of 25-44 μmol in vitro.

[4] = system: colon tumors; settings: 20 μg/mL, intratumorally applied, without irradiation; cited from earlier work
[5] = penetration depth of MB solutions into normal oral mucosa; settings: after 10-min incubation time
From the text: The clinical application of PDT is possible since the stain solutions selectively color cell systems, while the interaction with the epithelium is very limited. […] Furthermore, the life expectancy of the active radicals and their precursors is microseconds, so that it is practically assured that there are no concomitant destructive effects in healthy tissue due to diffusion, since there is not enough time for this.

[6] = system: all examined microorganisms; assay: in vitro reduction of microorganisms by methylene blue solutions in culture medium; type: cell-based; settings: culture medium being used
[7] = system: Gram negative germs; assay: complete reduction of Gram negative germs; type: cell-based; settings: compared with 25-44 μmol for Gram positive bacteria
From the text: (§1) Completely reducing Gram negative germs requires 3-30 times higher concentrations. P. aeruginosa was reduced […] by 3.5 log10 CFU at a concentration of 200˜mol and an energy density of 100 mW/cm^2.

[8] = system: P. aeruginosa; assay: photodynamic reduction of P. aeruginosa; type: cell-based; settings: concentration of 200˜mol; energy density of 100 mW/cm^2
From the text: as §1

| SMILES | observed dark toxicity [1] | distribution coefficient P [2] | concentration that reduces almost all Gram positive bacteria [3] [µmol] | destruction of colon tumors by the substance alone [4] | penetration depth into the epithelium [5] | reduction of the number of microorganisms in the culture medium [6] | concentration needed for completely reducing Gram negative germs, relative to Gram positive bacteria [7] | reduction of P. aeruginosa [8] [log10 CFU] |
| --- | --- | --- | --- | --- | --- | --- | --- | --- |
| Cc1cc2nc3ccc(N(C)C)cc3[s+]c2cc1N.[Cl-] [TB, toluidine blue] | higher | 0.33 |  |  |  |  |  |  |
| CN(C)c1ccc2nc3ccc(=[N+](C)C)cc-3sc2c1 [Methylene blue, phenothiazin-5-ium, 3,7-bis(dimethylamino)-chloride] |  |  | 25 to 44 | not destroyed | 1-2 exterior layers of cells | able to reduce the number of all examined microorganisms | 3-30 times higher | 3.5 |
